Experiments:
SK-MEL-5 (Melanoma) = assay: NCI single point 10 μM, SK-MEL-5; format: cell-based, human; settings: 10^−5 M
Method: The screening is a two-stage process, beginning with the evaluation of all compounds against 60 cell lines at a single dose of 10^−5 M.
(§1) The human tumor cell lines of the cancer screening panel are grown in RPMI 1640 medium containing 5% fetal bovine serum and 2 mM L-glutamine. Cells are inoculated into 96 well microtiter plates in 100 μL at plating densities ranging from 5,000 to 40,000 cells/well depending on the doubling time of individual cell lines. After cell inoculation, the microtiter plates are incubated at 37° C., 5% CO2, 95% air and 100% relative humidity for 24 h prior to addition of experimental drugs. […]
(§2) Following drug addition, the plates are incubated for an additional 48 h at 37° C., 5% CO2, 95% air, and 100% relative humidity. […] Bound stain is subsequently solubilized with 10 mM trizma base, and the absorbance is read on an automated plate reader at a wavelength of 515 nm. […]
For the 1-dose 60 cell testing, the Growth Percent is calculated for each cell line/drug combination from the absorbance measurement for the no-drug control (C), the absorbance at time zero (Tz) and the absorbance measurement after incubation of the cells in the presence of drug (Ti): Growth Percent=[(Ti−Tz)/(C−Tz)]×100 for cell line/drug combinations for which Ti≧Tz. […]

MCF-shWISP cells = assay: MTT cell proliferation assay, MCF-shWISP; format: cell-based; settings: 72 h-exposure, 30-0.041 μM
Method: (§3) In vitro characterizing of the effects of rilyazine analogs on cell proliferation and apoptosis in the paired epithelial/mesenchymal lines (Colo205/Colo-R, DLD/DLD-SNAIL and MCF7/MCF7-WISP) was performed in an independent laboratory.
(§4) The Dose Preparation is based on a reconstitute in DMSO. The Concentration of the stock solution is 100 mM. Storage of the stock solution is under −80° C.
(§5) Working drug solution of rilyazine analogs: A stock solution of 100 mM OTX015 in DMSO was prepared and stored at −80° C. For growth inhibition studies, dilution series were prepared by (1) diluting stock solution into DMSO, then (2) diluting 1:300 in culture medium supplemented with 10% FBS giving a final concentration in 0.3% DMSO in the 96-well plates.
(§6) Cell lines. Cells lines were maintained in RPMI 1640 (PAA Laboratories, France) supplemented with 10% fetal bovine serum (FBS; PAA Laboratories, France), 2 mM glutamine (PAA Laboratories, France), 100 units/ml penicillin and 100 μg/ml streptomycin (PAA Laboratories, France). Cells were free of Mycoplasma.
(§7) Proliferation assays. Cell proliferation was determined using the MTT assay (3-[4,5-dimethylthiazol-2-yl]-2,5-diphenyltetrazolium bromide; Sigma-Aldrich, St. Louis, Mo.). […] After incubation, the supernatant was discarded, the cell pellet was resuspended in 0.1 mL DMSO, and the absorbance was measured at 560 nm using a microplate reader (Thermo, France). […]

OVCAR-5 (ovarian cancer) = assay: NCI five point dosing, OVCAR-5; format: cell-based, human
Method: RL-4 was evaluated against the 60 cell panel at five concentration levels, 10^−8 M, 10^−7 M, 10^−6 M, 10^−5 M and 10^−4 M.
as §1, §2
The percentage growth is calculated at each of the five drug concentrations levels using the seven absorbance measurements, namely absorbance at time zero (Tz), absorbance of control after incubation (C), and absorbance of test sample after incubation in the presence of drug at each of the five concentration levels (Ti). The Growth Percent is calculated as it was for the 1 dose assay: Growth Percent=[(Ti−Tz)/(C−Tz)]×100 for cell line/drug combinations for which Ti≧Tz. […]

Colo-205 cells = assay: MTT cell proliferation assay, Colo-205; format: cell-based; settings: 72 h-exposure, 30-0.041 μM
Method: as §3, §4, §5, §6, §7

## S=c1c2ncccc2c(-c2ccccn2)nn1C1CCCCC1 [RL-4, 7-cyclohexyl-5-(pyridin-2-yl)pyrido[2,3-d]pyridazine-8(7H)-thione]
SK-MEL-5 (Melanoma)
  Growth Percent: 7.87%
MCF-shWISP cells
  anti-proliferative effects (in words): dose-dependent anti-proliferative effects
OVCAR-5 (ovarian cancer); 10^−4 M dose
  Growth Percent: 54%
OVCAR-5 (ovarian cancer); Homo sapiens, five point dosing
  GI50: > 100 µM
Colo-205 cells
  anti-proliferative effects (in words): dose-dependent anti-proliferative effects

Reference: patent US9394299B2, “Rilyazine derivatives and compositions for the treatment of cancer” (Warner Babcock Institute for Green Chemistry, LLC, priority 2013, dated 2016)
